Data: patent US20200017496A1 (priority 2017, published 2020)
Read-outs that look alike come from different tables or passages of the source.

Key:
[1] = tested on: Klebsiella pneumoniae (KPN) isolates; assay: MIC of compounds alone and combined with antibacterials, broth microdilution (CLSI); format: cell-based; details: Klebsiella pneumoniae, read-out: MIC
Method in brief: (§1)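 First, log-phase suspensions are brought to a final 5·10^5 CFU/mL in cation-adjusted Mueller-Hinton broth. Then plates with compound, antibacterial, or both incubate 16-20 h at 35° C under ambient air. Finally, visual inspection gives the lowest growth-preventing concentration for each agent.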

[2] = tested on: Serratia marcescens (SMA) isolates; assay: as above; format: cell-based; details: for MIC: Serratia marcescens, read-out: MIC
Method in brief: as §1

C=CC1=C(C(=O)O)N2C(=O)[C@@H](NC(=O)/C(=N\OCC(=O)O)c3csc(N)n3)[C@H]2SC1 [FIX, Cefixime]
MIC ([1]; strain KPN UFR79 (DHA-1, OXA-1), ATB alone): > 128 mg/L
MIC ([1]; strain KPN UFR79 (DHA-1, OXA-1), CLA @ 4 μg/ml+ ATB): > 128 mg/L
MIC ([1]; strain KPN UFR80 (SHV-11, DHA-1, OXA-1), ATB alone): ≤ 0.25 mg/L
MIC ([1]; strain KPN UFR80 (SHV-11, DHA-1, OXA-1), CLA @ 4 μg/ml+ ATB): 0.5 mg/L
MIC ([1]; strain KPN UFR81 (TEM-1, SHV-1, DHA-1, OXA-48), ATB alone): > 128 mg/L
MIC ([1]; strain KPN UFR81 (TEM-1, SHV-1, DHA-1, OXA-48), CLA @ 4 μg/ml+ ATB): > 128 mg/L
MIC ([1]; strain KPN UFR215 (SHV-27, CTX-M-15), ATB alone): > 128 mg/L
MIC ([1]; strain KPN UFR215 (SHV-27, CTX-M-15), CLA @ 4 μg/ml+ ATB): 1 mg/L
MIC ([1]; strain KPN UFR216 (SHV-28, CTX-M-15), ATB alone): > 128 mg/L
MIC ([1]; strain KPN UFR216 (SHV-28, CTX-M-15), CLA @ 4 μg/ml+ ATB): ≤ 0.25 mg/L
MIC ([1]; strain KPN UFR217 (TEM-1, SHV-1, CTX-M-15), ATB alone): > 128 mg/L
MIC ([1]; strain KPN UFR217 (TEM-1, SHV-1, CTX-M-15), CLA @ 4 μg/ml+ ATB): ≤ 0.25 mg/L
MIC ([1]; strain KPN UFR219 (SHV-12, CTX-M-15), ATB alone): > 128 mg/L
MIC ([1]; strain KPN UFR219 (SHV-12, CTX-M-15), CLA @ 4 μg/ml+ ATB): 0.5 mg/L
MIC ([1]; strain KPN UFR220 (TEM-1, SHV-12, DHA-1), ATB alone): > 128 mg/L
MIC ([1]; strain KPN UFR220 (TEM-1, SHV-12, DHA-1), CLA @ 4 μg/ml+ ATB): > 128 mg/L
MIC ([1]; strain KPN UFR221 (TEM-1, SHV-11, CTX-M-14, DHA-1), ATB alone): 64 mg/L
MIC ([1]; strain KPN UFR221 (TEM-1, SHV-11, CTX-M-14, DHA-1), CLA @ 4 μg/ml+ ATB): 128 mg/L
MIC ([1]; strain KPN UFR222 (DHA-2), ATB alone): > 128 mg/L
MIC ([1]; strain KPN UFR222 (DHA-2), CLA @ 4 μg/ml+ ATB): > 128 mg/L
MIC ([1]; strain KPN UFR227O (TEM-x, SHV-x, CTX-M-x), ATB alone): > 128 mg/L
MIC ([1]; strain KPN UFR227O (TEM-x, SHV-x, CTX-M-x), CLA @ 4 μg/ml+ ATB): > 128 mg/L
MIC ATB in combination ([2]; SMA UFR30, AF1 @ 4 μg/mL): <=0.25 μg/mL
MIC ATB in combination ([2]; SMA UFR30, AF1 @ 8 μg/mL): <=0.25 μg/mL
MIC ATB in combination ([2]; SMA UFR134, AF1 @ 4 μg/mL): 1 mg/L
MIC ATB in combination ([2]; SMA UFR134, AF1 @ 8 μg/mL): 1 mg/L
MIC ATB in combination ([2]; SMA UFR135, AF1 @ 4 μg/mL): 2 mg/L
MIC ATB in combination ([2]; SMA UFR135, AF1 @ 8 μg/mL): 2 mg/L
MIC ATB in combination ([2]; SMA UFR136, AF1 @ 4 μg/mL): 4 mg/L
MIC ATB in combination ([2]; SMA UFR136, AF1 @ 8 μg/mL): 2 mg/L
MIC ATB in combination ([2]; SMA UFR137, AF1 @ 4 μg/mL): <=0.25 μg/mL
MIC ATB in combination ([2]; SMA UFR137, AF1 @ 8 μg/mL): <=0.25 μg/mL
MIC ATB in combination ([2]; SMA UFR138, AF1 @ 4 μg/mL): <=0.25 μg/mL
MIC ATB in combination ([2]; SMA UFR138, AF1 @ 8 μg/mL): <=0.25 μg/mL
MIC ATB in combination ([2]; SMA UFR139, AF1 @ 4 μg/mL): 0.5 mg/L
MIC ATB in combination ([2]; SMA UFR139, AF1 @ 8 μg/mL): <=0.25 μg/mL
MIC ATB in combination ([2]; SMA UFR141, AF1 @ 4 μg/mL): 0.5 mg/L
MIC ATB in combination ([2]; SMA UFR141, AF1 @ 8 μg/mL): 0.5 mg/L
MIC ATB in combination ([2]; SMA UFR142, AF1 @ 4 μg/mL): 2 mg/L
MIC ATB in combination ([2]; SMA UFR142, AF1 @ 8 μg/mL): 1 mg/L
MIC ATB in combination ([2]; SMA UFR143, AF1 @ 4 μg/mL): 0.25 mg/L
MIC ATB in combination ([2]; SMA UFR143, AF1 @ 8 μg/mL): 0.25 mg/L
MIC ATB in combination ([2]; SMA UFR239, AF1 @ 4 μg/mL): 0.5 mg/L
MIC ATB in combination ([2]; SMA UFR239, AF1 @ 8 μg/mL): 0.5 mg/L
MIC ([2]; ATB alone, strain SMA UFR238 (OXA-48)): 1 mg/L
MIC ([2]; ATB combined with CLA @ 4 μg/ml, strain SMA UFR238 (OXA-48)): 2 mg/L
MIC ([2]; SMA UFR143, alone): 512 mg/L
MIC ([2]; strain SMA UFR30 (OXA-405), ATB alone): 1 mg/L
MIC ([2]; strain SMA UFR30 (OXA-405), CLA @ 4 μg/ml+ ATB): 1 mg/L
MIC ([2]; strain SMA UFR134 (TEM-1, BES-1), ATB alone): > 128 mg/L
MIC ([2]; strain SMA UFR134 (TEM-1, BES-1), CLA @ 4 μg/ml+ ATB): 32 mg/L
MIC ([2]; strain SMA UFR135 (TEM-1, KPC-2), ATB alone): 64 mg/L
MIC ([2]; strain SMA UFR135 (TEM-1, KPC-2), CLA @ 4 μg/ml+ ATB): 32 mg/L
MIC ([2]; strain SMA UFR136 (TEM-1, SHV-12, KPC-2), ATB alone): > 128 mg/L
MIC ([2]; strain SMA UFR136 (TEM-1, SHV-12, KPC-2), CLA @ 4 μg/ml+ ATB): > 128 mg/L
MIC ([2]; strain SMA UFR137 (SME-1), ATB alone): 0.5 mg/L
MIC ([2]; strain SMA UFR137 (SME-1), CLA @ 4 μg/ml+ ATB): 1 mg/L
MIC ([2]; strain SMA UFR138 (SME-1), ATB alone): 0.5 mg/L
MIC ([2]; strain SMA UFR138 (SME-1), CLA @ 4 μg/ml+ ATB): 0.5 mg/L
MIC ([2]; strain SMA UFR139 (SME-2), ATB alone): 1 mg/L
MIC ([2]; strain SMA UFR139 (SME-2), CLA @ 4 μg/ml+ ATB): 2 mg/L
MIC ([2]; strain SMA UFR141 (OXA-48), ATB alone): 2 mg/L
MIC ([2]; strain SMA UFR141 (OXA-48), CLA @ 4 μg/ml+ ATB): 0.5 mg/L
MIC ([2]; strain SMA UFR142 (OXA-48), ATB alone): 2 mg/L
MIC ([2]; strain SMA UFR142 (OXA-48), CLA @ 4 μg/ml+ ATB): 2 mg/L
MIC ([2]; strain SMA UFR143 (CTX-M-15, OXA-1, OXA-48), ATB alone): 512 mg/L
MIC ([2]; strain SMA UFR143 (CTX-M-15, OXA-1, OXA-48), CLA @ 4 μg/ml+ ATB): 64 mg/L
MIC ([2]; strain SMA UFR239 (ESAC), ATB alone): 2 mg/L
MIC ([2]; strain SMA UFR239 (ESAC), CLA @ 4 μg/ml+ ATB): 2 mg/L
MIC ATB in combination ([2]; strain SMA UFR238, antibacterial combined with AF1 @ 4 μg/mL): 1 mg/L
MIC ATB in combination ([2]; strain SMA UFR238, antibacterial combined with AF1 @ 8 μg/mL): 0.5 mg/L
